# Laboratory results taken from ChEMBL document CHEMBL1129219, “Use of CoMFA in validating the conformation used in designing 4-(1H-benzimidazole-2-carbonyl)piperidines with H1/NK1 receptor antagonist activity” (Bioorg Med Chem Lett, 1997).
# pIC50: −log10 of the molar value.
# Target: Histamine H1 receptor (Homo sapiens, UniProt P35367)
# Experiment: Antagonistic activity against histamine H1 receptor
# Assay type: functional
# Histamine H1 receptor, sequence (P35367 whole entry): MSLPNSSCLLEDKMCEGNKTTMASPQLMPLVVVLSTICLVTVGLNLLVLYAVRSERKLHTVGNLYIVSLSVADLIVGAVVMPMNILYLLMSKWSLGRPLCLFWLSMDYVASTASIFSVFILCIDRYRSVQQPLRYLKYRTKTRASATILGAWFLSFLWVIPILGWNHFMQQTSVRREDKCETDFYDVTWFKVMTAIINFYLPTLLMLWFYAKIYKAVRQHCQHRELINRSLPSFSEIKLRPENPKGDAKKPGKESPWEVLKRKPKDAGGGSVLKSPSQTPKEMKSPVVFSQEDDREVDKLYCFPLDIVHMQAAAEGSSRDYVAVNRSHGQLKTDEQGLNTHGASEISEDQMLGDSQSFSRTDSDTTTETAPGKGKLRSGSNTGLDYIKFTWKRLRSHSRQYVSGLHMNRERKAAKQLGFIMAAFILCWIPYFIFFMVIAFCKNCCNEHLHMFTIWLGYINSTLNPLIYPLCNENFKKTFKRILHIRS
row,SMILES,pIC50
1,COc1ccc(C(=O)N2CCC(CCN3CCC(C(=O)c4nc5ccccc5n4Cc4ccc(F)cc4)CC3)(c3ccc4c(c3)OCO4)C2)c(OC)c1OC (stereo not drawn),6.59
2,COc1cc(C(=O)N2CCC(CCN3CCC(C(=O)c4nc5ccccc5n4CCOCc4ccco4)CC3)(c3ccccc3)C2)cc(OC)c1OC (stereo not drawn),6.35
3,COc1ccc(C2(CCN3CCC(C(=O)c4nc5ccccc5n4Cc4ccc(F)cc4)CC3)CCN(C(=O)c3ccccc3)C2)cc1OC (stereo not drawn),6.62
4,COc1cc(C(=O)N2CCC(CCN3CCC(C(=O)c4nc5ccccc5n4Cc4ccco4)CC3)(c3ccccc3)C2)cc(OC)c1OC (stereo not drawn),6.53
5,CCOCCn1c(C(=O)C2CCN(CCC3(c4ccccc4)CCN(C(=O)c4cc(OC)c(OC)c(OC)c4)C3)CC2)nc2ccccc21 (stereo not drawn),6.42
6,O=C(c1nc2ccccc2n1Cc1ccc(F)cc1)C1CCN(CCC2(c3ccc4c(c3)OCO4)CCN(C(=O)c3ccc(Cl)cc3Cl)C2)CC1 (stereo not drawn),6.89
7,COc1cc(C(=O)N2CCC(CCN3CCC(C(=O)c4nc5ccccc5n4Cc4ccncc4)CC3)(c3ccccc3)C2)cc(OC)c1OC (stereo not drawn),6.55
8,COc1cc(C(=O)N2CCC(CCN3CCC(C(=O)c4nc5ccccc5n4Cc4ccccn4)CC3)(c3ccc(Cl)c(Cl)c3)C2)cc(OC)c1OC (stereo not drawn),6.36
9,CCOC(=O)CCCn1c(C(=O)C2CCN(CCC3(c4ccc(Cl)c(Cl)c4)CCN(C(=O)c4cc(OC)c(OC)c(OC)c4)C3)CC2)nc2ccccc21 (stereo not drawn),6.02
10,COC(=O)c1ccccc1OCCCn1c(C(=O)C2CCN(CCC3(c4ccccc4)CCN(C(=O)c4cc(OC)c(OC)c(OC)c4)C3)CC2)nc2ccccc21 (stereo not drawn),6.00
11,COc1ccc(C2(CCN3CCC(C(=O)c4nc5ccccc5[nH]4)CC3)CCN(C(=O)c3cc(OC)c(OC)c(OC)c3)C2)cc1OC (stereo not drawn),5.71
12,COc1cc(C(=O)N2CCC(CCN3CCC(C(=O)c4nc5ccccc5n4CCCC(=O)O)CC3)(c3ccc(Cl)c(Cl)c3)C2)cc(OC)c1OC (stereo not drawn),5.00
13,COc1ccc(CCN2CCC(C(=O)c3nc4ccccc4n3Cc3ccc(F)cc3)CC2)cc1,7.23
14,CCOCCn1c(C(=O)C2CCN(CCC3(c4ccc(Cl)c(Cl)c4)CCN(C(=O)c4cc(OC)c(OC)c(OC)c4)C3)CC2)nc2ccccc21 (stereo not drawn),6.47
15,COc1cc(C(=O)N2CCC(CCN3CCC(C(=O)c4nc5ccccc5n4Cc4cccnc4)CC3)(c3ccccc3)C2)cc(OC)c1OC (stereo not drawn),6.38
16,COc1cc(C(=O)N2CCC(CCN3CCC(C(=O)c4nc5ccccc5n4CCN4CCOCC4)CC3)(c3ccc(Cl)c(Cl)c3)C2)cc(OC)c1OC (stereo not drawn),6.26
17,COc1cc(C(=O)N2CCC(CCN3CCC(C(=O)c4nc5ccccc5n4Cc4ccccn4)CC3)(c3ccccc3)C2)cc(OC)c1OC (stereo not drawn),6.44
18,COc1ccc(CCN2CCC(=Nc3nc4ccccc4n3Cc3ccc(F)cc3)CC2)cc1,7.33
19,CC(C)Oc1cccc(CC(=O)N2CCC(CCN3CCC(C(=O)c4nc5ccccc5n4Cc4ccc(F)cc4)CC3)(c3ccc4c(c3)OCO4)C2)c1 (stereo not drawn),6.60
20,COc1cc(C(=O)N2CCC(CCN3CCC(C(=O)c4nc5ccccc5[nH]4)CC3)(c3ccccc3)C2)cc(OC)c1OC (stereo not drawn),6.30
21,CCOCCn1c(C(=O)C2CCN(CCC3(c4ccc(F)cc4)CCN(Cc4cc(OC)c(OC)c(OC)c4)C3=O)CC2)nc2ccccc21 (stereo not drawn),6.60
22,COc1cc(C(=O)N2CCC(CCN3CCC(C(=O)c4nc5ccccc5[nH]4)CC3)(c3ccc(Cl)c(Cl)c3)C2)cc(OC)c1OC (stereo not drawn),6.39
23,COc1cc(C(=O)N2CCC(CCN3CCC(C(=O)c4nc5ccccc5n4CCCCOc4ccccc4C(=O)O)CC3)(c3ccccc3)C2)cc(OC)c1OC (stereo not drawn),5.04
24,COc1cc(C(=O)N2CCC(CCN3CCC(C(=O)c4nc5ccccc5n4Cc4ccccn4)CC3)(c3ccc(F)cc3)C2)cc(OC)c1OC (stereo not drawn),6.25

# Other lines, results leading:
row,pIC50,SMILES
1,6.02,COC(=O)c1ccc(Cn2c(C(=O)C3CCN(CCC4(c5ccc(OC)c(OC)c5)CCN(C(=O)c5cc(OC)c(OC)c(OC)c5)C4)CC3)nc3ccccc32)cc1 (stereo not drawn)
2,6.80,CCOc1cc(C(=O)N2CCC(CCN3CCC(C(=O)c4nc5ccccc5n4Cc4ccc(F)cc4)CC3)(c3ccc(OC)c(OC)c3)C2)cc(OCC)c1OCC (stereo not drawn)
3,6.55,COc1cc(C(=O)N2CCC(CCN3CCC(C(=O)c4nc5ccccc5n4Cc4ccc(F)cc4)CC3)(c3ccc(Cl)c(Cl)c3)C2)cc(OC)c1OC (stereo not drawn)
4,4.47,COc1cc(C(=O)N2CCC(CCN3CCC(C(=O)c4nc5ccccc5n4Cc4ccc(C(=O)O)cc4)CC3)(c3ccccc3)C2)cc(OC)c1OC (stereo not drawn)
5,6.69,COc1cc(C(=O)N2CCC(CCN3CCC(C(=O)c4nc5ccccc5n4Cc4ccc(F)cc4)CC3)(c3ccc4c(c3)OCO4)C2)cc(OC)c1OC (stereo not drawn)
6,6.20,CCOCCn1c(C(=O)C2CCN(CCC3(c4ccc(OC)c(OC)c4)CCN(C(=O)c4cc(OC)c(OC)c(OC)c4)C3)CC2)nc2ccccc21 (stereo not drawn)
7,6.63,COc1cc(C(=O)N2CCC(CCN3CCC(C(=O)c4nc5ccccc5n4Cc4ccc(F)cc4)CC3)(c3ccccc3)C2)cc(OC)c1OC (stereo not drawn)
8,6.36,COc1cc(C(=O)N2CCC(CCN3CCC(C(=O)c4nc5ccccc5n4Cc4ccc(F)cc4)CC3)(c3ccc(F)cc3F)C2)cc(OC)c1OC (stereo not drawn)
9,6.67,COc1cc(C(=O)N2CCCC(CCN3CCC(C(=O)c4nc5ccccc5n4Cc4ccc(F)cc4)CC3)(c3ccc(Cl)c(Cl)c3)C2)cc(OC)c1OC (stereo not drawn)
10,6.30,COc1ccc(C2(CCN3CCC(C(=O)c4nc5ccccc5n4Cc4ccccn4)CC3)CCN(C(=O)c3cc(OC)c(OC)c(OC)c3)C2)cc1 (stereo not drawn)
11,6.33,COc1cc(C(=O)N2CCC(CCN3CCC(C(=O)c4nc5ccccc5n4Cc4ccc(F)cc4)CC3)(c3ccc(C(F)(F)F)cc3)C2)cc(OC)c1OC (stereo not drawn)
12,4.56,COc1ccc(C2(CCN3CCC(C(=O)c4nc5ccccc5n4Cc4ccc(C(=O)O)cc4)CC3)CCN(C(=O)c3cc(OC)c(OC)c(OC)c3)C2)cc1OC (stereo not drawn)
13,5.93,COC(=O)c1ccc(Cn2c(C(=O)C3CCN(CCC4(c5ccccc5)CCN(C(=O)c5cc(OC)c(OC)c(OC)c5)C4)CC3)nc3ccccc32)cc1 (stereo not drawn)
14,6.48,COc1ccc(C2(CCN3CCC(C(=O)c4nc5ccccc5n4Cc4ccc(F)cc4)CC3)CCN(C(=O)c3cc(OC)c(OC)c(OC)c3)C2)cc1OC (stereo not drawn)
